Experimental data from patent US7442392B2, “Pesticides” (priority 2004, dated 2008).

Tested on: root-knot nematodes (Meloidogyne sp), some Pratylenchus sp.
Assay: Water screen, plant parasitic nematodes
Format: in vivo
Description: 100 microliters containing nematodes were pipetted into 2.5 cm Petri dishes. The nematodes used were principally root-knot nematodes (Meloidogyne sp) but some initial observations were also made on some Pratylenchus sp. and free-living species (non-plant parasites). 900 microliters of Loquat extract, or 500 microliters of Loquat extract plus 400 microliters of water, were added to the nematodes to give concentrations of 90 or 50% of the original Loquat extract. Total added volume was therefore 1 ml.
Controls were nematodes from the same source placed in tap water.
Following application of the Loquat or amygdalin solution, observations were made after 10 minutes, the next day, and after 5 days.

Question: With `N#C[C@H](O[C@@H]1O[C@H](CO[C@@H]2O[C@H](CO)[C@@H](O)[C@H](O)[C@H]2O)[C@@H](O)[C@H](O)[C@H]1O)c1ccccc1` [amygdalin] as the compound, how does the Activity of nematodes (10 minutes, both concentrations (70 mg or 400 mg in 50 ml water)) read?
Answer: still active

Question: What about the Activity of nematodes (5 days later, both amygdalin treatments) of the same compound?
Answer: still active

Question: What about the “Activity of amygdalin itself (conclusion)” value (in vivo) of the same compound?
Answer: not active per se

Question: What about the Activity of nematodes (next day, both amygdalin treatments) of the same compound?
Answer: active
